# Data taken from ChEMBL document CHEMBL3885881, “DrugMatrix”.
# Organism: Rattus norvegicus
# Experiment: DrugMatrix - Regimen: Daily Repeat
# Assay type: toxicity, organism-based, Sprague-Dawley
# Design: regimen Daily Repeat, gender Male, age 6-8 weeks
# Conditions: in vivo, po, route oral GAVAGE, […]; for ABSOLUTE BASOPHIL / ABSOLUTE EOSINOPHIL / ABSOLUTE LYMPHOCYTE / ABSOLUTE MONOCYTE / ABSOLUTE SEGMENTED NEUTROPHIL / BASOPHIL / EOSINOPHIL / ERYTHROCYTE COUNT / HEMATOCRIT / HEMOGLOBIN / LEUKOCYTE COUNT / LYMPHOCYTE / MEAN CORPUSCULAR HEMOGLOBIN / MEAN CORPUSCULAR HEMOGLOBIN CONCENTRATION / MEAN CORPUSCULAR VOLUME / MONOCYTE / NEUTROPHIL / NUCLEATED RED BLOOD CELLS / PLATELET COUNT: tissue Blood; for ALANINE AMINOTRANSFERASE / ALBUMIN / ALKALINE PHOSPHATASE / ASPARTATE AMINOTRANSFERASE / BLOOD UREA NITROGEN / CARBON DIOXIDE / CHLORIDE / CHOLESTEROL / CREATINE PHOSPHOKINASE / CREATININE / GLUCOSE / LACTATE DEHYDROGENASE / LIPASE / PHOSPHORUS / POTASSIUM / SODIUM / TOTAL BILIRUBIN / TOTAL PROTEIN / URIC ACID: tissue Plasma
# [1] = 30 mg/kg, 120 h, dose level Low, time 5 day
# [2] = 1000 mg/kg, 72 h, dose level High, time 3 day
# [3] = 1000 mg/kg, 120 h, dose level High, time 5 day
smiles,measurement,setting,value
CCCCC(=O)N(Cc1ccc(-c2ccccc2-c2nnn[nH]2)cc1)[C@H](C(=O)O)C(C)C,ABSOLUTE BASOPHIL,[1],0 CELLS/uL
same,ABSOLUTE EOSINOPHIL,[1],0 CELLS/uL
same,ABSOLUTE LYMPHOCYTE,[1],14863.33 CELLS/uL
same,ABSOLUTE MONOCYTE,[1],58.33 CELLS/uL
same,ABSOLUTE SEGMENTED NEUTROPHIL,[1],1411.67 CELLS/uL
same,BASOPHIL,[1],0%
same,EOSINOPHIL,[1],0%
same,ERYTHROCYTE COUNT,[1],5.54 x10E6/uL
same,HEMATOCRIT,[1],34.23%
same,HEMOGLOBIN,[1],13.5 G/DL
same,LEUKOCYTE COUNT,[1],16.33 x10E3/uL
same,LYMPHOCYTE,[1],91%
same,MEAN CORPUSCULAR HEMOGLOBIN,[1],24.4 pg
same,MEAN CORPUSCULAR HEMOGLOBIN CONCENTRATION,[1],39.43 G/DL
same,MEAN CORPUSCULAR VOLUME,[1],61.87 fL
same,MONOCYTE,[1],0.33%
same,NEUTROPHIL,[1],8.67%
same,NUCLEATED RED BLOOD CELLS,[1],0 /100WBC
same,PLATELET COUNT,[1],1196 x10E3/uL
same,ALANINE AMINOTRANSFERASE,[1],63.67 u/L
same,ALBUMIN,[1],4.07 G/DL
same,ALKALINE PHOSPHATASE,[1],455.33 u/L
same,ASPARTATE AMINOTRANSFERASE,[1],87.33 u/L
same,BLOOD UREA NITROGEN,[1],15.67 mg/dL
same,CARBON DIOXIDE,[1],23.33 mmol/L
same,CHLORIDE,[1],102.33 MEQ/L
same,CHOLESTEROL,[1],63 mg/dL
same,CREATINE PHOSPHOKINASE,[1],339 u/L
same,CREATININE,[1],0.18 mg/dL
same,GLUCOSE,[1],206.33 mg/dL
same,LACTATE DEHYDROGENASE,[1],183 u/L
same,LIPASE,[1],9.33 u/L
same,PHOSPHORUS,[1],12.9 mg/dL
same,POTASSIUM,[1],6.08 MEQ/L
same,SODIUM,[1],140.77 MEQ/L
same,TOTAL BILIRUBIN,[1],0.13 mg/dL
same,TOTAL PROTEIN,[1],5.6 G/DL
same,URIC ACID,[1],2.2 mg/dL
same,ABSOLUTE BASOPHIL,[2],0 CELLS/uL
same,ABSOLUTE EOSINOPHIL,[2],0 CELLS/uL
same,ABSOLUTE LYMPHOCYTE,[2],6741.67 CELLS/uL
same,ABSOLUTE MONOCYTE,[2],52 CELLS/uL
same,ABSOLUTE SEGMENTED NEUTROPHIL,[2],673 CELLS/uL
same,BASOPHIL,[2],0%
same,EOSINOPHIL,[2],0%
same,ERYTHROCYTE COUNT,[2],5.05 x10E6/uL
same,HEMATOCRIT,[2],31%
same,HEMOGLOBIN,[2],12.27 G/DL
same,LEUKOCYTE COUNT,[2],7.47 x10E3/uL
same,LYMPHOCYTE,[2],90.67%
same,MEAN CORPUSCULAR HEMOGLOBIN,[2],24.33 pg
same,MEAN CORPUSCULAR HEMOGLOBIN CONCENTRATION,[2],39.6 G/DL
same,MEAN CORPUSCULAR VOLUME,[2],61.43 fL
same,MONOCYTE,[2],0.67%
same,NEUTROPHIL,[2],8.67%
same,NUCLEATED RED BLOOD CELLS,[2],0 /100WBC
same,PLATELET COUNT,[2],1278.67 x10E3/uL
same,ALANINE AMINOTRANSFERASE,[2],56.67 u/L
same,ALBUMIN,[2],3.8 G/DL
same,ALKALINE PHOSPHATASE,[2],381.67 u/L
same,ASPARTATE AMINOTRANSFERASE,[2],79.67 u/L
same,BLOOD UREA NITROGEN,[2],47.33 mg/dL
same,CARBON DIOXIDE,[2],23 mmol/L
same,CHLORIDE,[2],100.67 MEQ/L
same,CHOLESTEROL,[2],69.33 mg/dL
same,CREATINE PHOSPHOKINASE,[2],401 u/L
same,CREATININE,[2],0.56 mg/dL
same,GLUCOSE,[2],149 mg/dL
same,LACTATE DEHYDROGENASE,[2],105.67 u/L
same,LIPASE,[2],10 u/L
same,PHOSPHORUS,[2],9.53 mg/dL
same,POTASSIUM,[2],7.33 MEQ/L
same,SODIUM,[2],138.9 MEQ/L
same,TOTAL BILIRUBIN,[2],0.2 mg/dL
same,TOTAL PROTEIN,[2],5.27 G/DL
same,URIC ACID,[2],1.17 mg/dL
same,ABSOLUTE BASOPHIL,[3],0 CELLS/uL
same,ABSOLUTE EOSINOPHIL,[3],82 CELLS/uL
same,ABSOLUTE LYMPHOCYTE,[3],18525.33 CELLS/uL
same,ABSOLUTE MONOCYTE,[3],112.67 CELLS/uL
same,ABSOLUTE SEGMENTED NEUTROPHIL,[3],746.67 CELLS/uL
same,BASOPHIL,[3],0%
same,EOSINOPHIL,[3],0.33%
same,ERYTHROCYTE COUNT,[3],5.79 x10E6/uL
same,HEMATOCRIT,[3],35.4%
same,HEMOGLOBIN,[3],13.73 G/DL
same,LEUKOCYTE COUNT,[3],19.47 x10E3/uL
same,LYMPHOCYTE,[3],95%
same,MEAN CORPUSCULAR HEMOGLOBIN,[3],23.7 pg
same,MEAN CORPUSCULAR HEMOGLOBIN CONCENTRATION,[3],38.8 G/DL
same,MEAN CORPUSCULAR VOLUME,[3],61.13 fL
same,MONOCYTE,[3],0.67%
same,NEUTROPHIL,[3],4%
same,NUCLEATED RED BLOOD CELLS,[3],0 /100WBC
same,PLATELET COUNT,[3],1264 x10E3/uL
same,ALANINE AMINOTRANSFERASE,[3],55.33 u/L
same,ALBUMIN,[3],4.03 G/DL
same,ALKALINE PHOSPHATASE,[3],436 u/L
same,ASPARTATE AMINOTRANSFERASE,[3],82.33 u/L
same,BLOOD UREA NITROGEN,[3],56 mg/dL
same,CARBON DIOXIDE,[3],23.33 mmol/L
same,CHLORIDE,[3],105 MEQ/L
same,CHOLESTEROL,[3],70.67 mg/dL
same,CREATINE PHOSPHOKINASE,[3],365 u/L
same,CREATININE,[3],0.42 mg/dL
same,GLUCOSE,[3],175.33 mg/dL
same,LACTATE DEHYDROGENASE,[3],181.67 u/L
same,LIPASE,[3],10.33 u/L
same,PHOSPHORUS,[3],11.47 mg/dL
same,POTASSIUM,[3],7.6 MEQ/L
same,SODIUM,[3],140.73 MEQ/L
same,TOTAL BILIRUBIN,[3],0.17 mg/dL
same,TOTAL PROTEIN,[3],5.87 G/DL
same,URIC ACID,[3],1.6 mg/dL
